Measured values: patent publication USRE48461E1, “Modulation of androgen receptor expression” (Ionis Pharmaceuticals, Inc., priority 2012, dated 2021)
Oligonucleotides are written 5' to 3', each unit as a sugar letter and its base; * is a phosphorothioate linkage, no mark a phosphodiester; rarer units and linkages stand in square brackets, end groups in braces. Plain capitals give the bases only. k = constrained ethyl (cEt); [5mC] = 5-methylcytosine; d = 2'-deoxy (DNA)

Columns and labels:
[1] = test system: AR mRNA; assay: Antisense inhibition of human AR in HuVEC cells, single concentration (electroporation, qRT-PCR RTS3559); format: cell-based
In short: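 AR mRNA levels were measured with human primer-probe set RTS3559 and adjusted for total RNA (RIBOGREEN). Cells were HuVEC, with each antisense oligonucleotide delivered by electroporation at one concentration.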

[2] = test system: AR mRNA; assay: Dose-dependent antisense inhibition of human AR in HuVEC cells (electroporation, qRT-PCR RTS3559, IC50); format: cell-based
In short: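 HuVEC cells dosed with antisense oligonucleotides by electroporation and treated approximately 16 hours. AR mRNA quantified by real-time qPCR with primer probe set RTS3559 and normalised to total RNA by RIBOGREEN; IC50 from dose-response.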

549372 (kA*kA*kG*dT*dT*dG*dT*dA*dG*dT*dA*dG*dT*k[5mC]*kG*k[5mC]) [compound 549372]
% inhibition ([1]; 500 nM ASO, electroporation, ~24 h, Table 1): 92% | % inhibition ([1]; 500 nM ASO, ~24 h, Table 16): 47% | % inhibition ([1]; 500 nM ASO, ~24 h, Table 17): 40% | % inhibition ([1]; 500 nM ASO, ~24 h, Table 18): 26% | % inhibition ([1]; 1,000 nM ASO, ~24 h, Table 13): 64% | % inhibition ([1]; 1,000 nM ASO, ~24 h, Table 26): 58% | % inhibition ([1]; Table 19, 500 nM oligonucleotide, electroporation, approximately 24 hours, relative to untreated control): 39% | % inhibition ([1]; Table 20, 500 nM oligonucleotide, electroporation, approximately 24 hours, relative to untreated control): 23% | % inhibition ([1]; Table 21, 500 nM oligonucleotide, electroporation, approximately 24 hours, relative to untreated control): 37% | % inhibition ([1]; Table 22, 500 nM oligonucleotide, electroporation, approximately 24 hours, relative to untreated control): 46% | % inhibition ([1]; Table 23, 500 nM oligonucleotide, electroporation, approximately 24 hours, relative to untreated control): 25% | % inhibition ([1]; Table 24, 1,000 nM oligonucleotide, electroporation, approximately 24 hours, relative to untreated control): 63% | % inhibition ([1]; Table 25, 1,000 nM oligonucleotide, electroporation, approximately 24 hours, relative to untreated control): 59% | % inhibition ([1]; Table 27, 1,000 nM oligonucleotide, electroporation, approximately 24 hours, relative to untreated control): 70% | % inhibition ([1]; Table 28, 1,000 nM oligonucleotide, electroporation, approximately 24 hours, relative to untreated control): 54% | percent inhibition of AR ([2]; 31.25 nM, HuVEC, ~16 h, Table 14): 2% | percent inhibition of AR ([2]; 46.9 nM, HuVEC, ~16 h, Table 15): 9% | percent inhibition of AR ([2]; 55.6 nM, HuVEC, ~16 h, Table 3): 22% | percent inhibition of AR ([2]; 62.5 nM, HuVEC, ~16 h, Table 14): 17% | percent inhibition of AR ([2]; 125.0 nM, HuVEC, ~16 h, Table 14): 31% | percent inhibition of AR ([2]; 166.7 nM, HuVEC, ~16 h, Table 3): 51% | percent inhibition of AR ([2]; 187.5 nM, HuVEC, ~16 h, Table 15): 41% | percent inhibition of AR ([2]; 500.0 nM, HuVEC, ~16 h, Table 3): 85% | percent inhibition of AR ([2]; 500.0 nM, HuVEC, ~16 h, Table 14): 61% | percent inhibition of AR ([2]; 750.0 nM, HuVEC, ~16 h, Table 15): 66% | percent inhibition of AR ([2]; 1000.0 nM, HuVEC, ~16 h, Table 14): 80% | percent inhibition of AR ([2]; 1500.0 nM, HuVEC, ~16 h, Table 3): 89% | percent inhibition of AR ([2]; 3000.0 nM, HuVEC, ~16 h, Table 15): 87% | IC50 ([2]; HuVEC cells, electroporation): 290 nM | inhibition of AR mRNA at 46.9 nM ([2]; HuVEC cells, electroporation, 46.9 nM ASO): 9% | inhibition of AR mRNA at 187.5 nM ([2]; HuVEC cells, electroporation, 187.5 nM ASO): 41% | inhibition of AR mRNA at 750.0 nM ([2]; HuVEC cells, electroporation, 750.0 nM ASO): 66% | inhibition of AR mRNA at 3000.0 nM ([2]; HuVEC cells, electroporation, 3000.0 nM ASO): 87% | IC50 ([2]; HuVEC, ~16 h, Table 3): 150 nM | IC50 ([2]; HuVEC, ~16 h, Table 14): 271 nM | IC50 ([2]; HuVEC, ~16 h, Table 15): 290 nM | percent inhibition of AR, 46.9 nM ([2]; Table 29, 46.9 nM, HuVEC, electroporation, approximately 16 hours): 7% | percent inhibition of AR, 187.5 nM ([2]; Table 29, 187.5 nM, HuVEC, electroporation, approximately 16 hours): 41% | percent inhibition of AR, 750.0 nM ([2]; Table 29, 750.0 nM, HuVEC, electroporation, approximately 16 hours): 70% | percent inhibition of AR, 3000.0 nM ([2]; Table 29, 3000.0 nM, HuVEC, electroporation, approximately 16 hours): 91% | IC50 ([2]; Table 29, HuVEC, electroporation, approximately 16 hours): 320 nM | percent inhibition of AR, 46.9 nM ([2]; Table 30, 46.9 nM, HuVEC, electroporation, approximately 16 hours): 13% | percent inhibition of AR, 187.5 nM ([2]; Table 30, 187.5 nM, HuVEC, electroporation, approximately 16 hours): 29% | percent inhibition of AR, 750.0 nM ([2]; Table 30, 750.0 nM, HuVEC, electroporation, approximately 16 hours): 69% | percent inhibition of AR, 3000.0 nM ([2]; Table 30, 3000.0 nM, HuVEC, electroporation, approximately 16 hours): 90% | IC50 ([2]; Table 30, HuVEC, electroporation, approximately 16 hours): 370 nM | percent inhibition of AR, 46.9 nM ([2]; Table 31, 46.9 nM, HuVEC, electroporation, approximately 16 hours): 5% | percent inhibition of AR, 187.5 nM ([2]; Table 31, 187.5 nM, HuVEC, electroporation, approximately 16 hours): 36% | percent inhibition of AR, 750.0 nM ([2]; Table 31, 750.0 nM, HuVEC, electroporation, approximately 16 hours): 69% | percent inhibition of AR, 3000.0 nM ([2]; Table 31, 3000.0 nM, HuVEC, electroporation, approximately 16 hours): 88% | IC50 ([2]; Table 31, HuVEC, electroporation, approximately 16 hours): 360 nM | percent inhibition of AR, 46.9 nM ([2]; Table 32, 46.9 nM, HuVEC, electroporation, approximately 16 hours): 15% | percent inhibition of AR, 187.5 nM ([2]; Table 32, 187.5 nM, HuVEC, electroporation, approximately 16 hours): 39% | percent inhibition of AR, 750.0 nM ([2]; Table 32, 750.0 nM, HuVEC, electroporation, approximately 16 hours): 70% | percent inhibition of AR, 3000.0 nM ([2]; Table 32, 3000.0 nM, HuVEC, electroporation, approximately 16 hours): 86% | IC50 ([2]; Table 32, HuVEC, electroporation, approximately 16 hours): 300 nM | percent inhibition of AR, 46.9 nM ([2]; Table 33, 46.9 nM, HuVEC, electroporation, approximately 16 hours): 14% | percent inhibition of AR, 187.5 nM ([2]; Table 33, 187.5 nM, HuVEC, electroporation, approximately 16 hours): 33% | percent inhibition of AR, 750.0 nM ([2]; Table 33, 750.0 nM, HuVEC, electroporation, approximately 16 hours): 64% | percent inhibition of AR, 3000.0 nM ([2]; Table 33, 3000.0 nM, HuVEC, electroporation, approximately 16 hours): 90% | IC50 ([2]; Table 33, HuVEC, electroporation, approximately 16 hours): 340 nM | percent inhibition of AR, 46.9 nM ([2]; Table 34, 46.9 nM, HuVEC, electroporation, approximately 16 hours): 14% | percent inhibition of AR, 187.5 nM ([2]; Table 34, 187.5 nM, HuVEC, electroporation, approximately 16 hours): 36% | percent inhibition of AR, 750.0 nM ([2]; Table 34, 750.0 nM, HuVEC, electroporation, approximately 16 hours): 64% | percent inhibition of AR, 3000.0 nM ([2]; Table 34, 3000.0 nM, HuVEC, electroporation, approximately 16 hours): 88% | IC50 ([2]; Table 34, HuVEC, electroporation, approximately 16 hours): 320 nM | percent inhibition of AR, 46.9 nM ([2]; Table 35, 46.9 nM, HuVEC, electroporation, approximately 16 hours): 0% | percent inhibition of AR, 187.5 nM ([2]; Table 35, 187.5 nM, HuVEC, electroporation, approximately 16 hours): 28% | percent inhibition of AR, 750.0 nM ([2]; Table 35, 750.0 nM, HuVEC, electroporation, approximately 16 hours): 64% | percent inhibition of AR, 3000.0 nM ([2]; Table 35, 3000.0 nM, HuVEC, electroporation, approximately 16 hours): 88% | IC50 ([2]; Table 35, HuVEC, electroporation, approximately 16 hours): 420 nM | percent inhibition of AR, 46.9 nM ([2]; Table 36, 46.9 nM, HuVEC, electroporation, approximately 16 hours): 2% | percent inhibition of AR, 187.5 nM ([2]; Table 36, 187.5 nM, HuVEC, electroporation, approximately 16 hours): 26% | percent inhibition of AR, 750.0 nM ([2]; Table 36, 750.0 nM, HuVEC, electroporation, approximately 16 hours): 61% | percent inhibition of AR, 3000.0 nM ([2]; Table 36, 3000.0 nM, HuVEC, electroporation, approximately 16 hours): 85% | IC50 ([2]; Table 36, HuVEC, electroporation, approximately 16 hours): 420 nM
